Reference: patent US20240173389A1, “Compositions and Methods For Reducing Immune Intolerance” (LAPIX THERAPEUTICS, INC., priority 2021, published 2024)

Columns and labels:
[1] = test system: B57BL6 Mice; assay: Anti-FVIII titer analysis in mice given FVIII co-mixed with compound SC QW 4 weeks, then FVIII re-challenge (Example 1); type: in vivo
Description: (§1) OPLT was dissolved in sterile PBS, and pH was adjusted to approximately 7.5. OPLS, a comparator compound, was dissolved in sterile PBS, and pH was adjusted to approximately 7.5. FVIII in PBS was used as a control. For treatment, FVIII was co-mixed with OPLT, OPLS or diluted in PBS before administration, as per group assignment for each animal. For re-challenge, FVIII was administered alone SC to all animals regardless of group assignment. […] For a head-to-head comparison, 5 mg/injection was selected for OPLT. FVIII was dosed at 1 μg/injection.
The study was conducted in two parts: a treatment phase and a re-challenge phase. The objective of the treatment phase was to test the ability of OPLT to reduce the immunogenicity of FVIII as an antigen compared to animals administered FVIII or FVIII+OPLS. Animals were injected with FVIII, FVIII+OPLT, or FVIII+OPLS SC QW for 4 weeks. Blood samples were collected for anti-FVIII titer analysis after a one-week washout period from the last dose. The objective of the re-challenge phase of the study was to evaluate the duration of tolerance. Animals that have been successfully tolerized toward FVIII will not mount a robust immune response towards FVIII upon subsequent exposure to FVIII. After the washout period, animals were injected with (1 μg) FVIII SC QW for 2 weeks. Blood samples were collected one week after each FVIII injection for anti-FVIII titer analysis.

[2] = test system: FoxP3+/CD4+ T-cell; assay: Ex vivo flow cytometry of splenocytes for FoxP3+/CD4+ T-cells after FVIII treatment period (Example 1); type: in vivo, mice
Description: as §1
(§2) One week after the last dose in the treatment period, one animal from each group was selected at random for ex vivo analysis of the T-cell population. Spleens were collected and a single-cell suspension was prepared for cellular phenotyping by flow cytometry. Cells were stained and gated for CD4+ T-cells. FoxP3 expression level was evaluated for each animal.

[3] = test system: FoxP3+/CD4+ T-cell; assay: Ex vivo flow cytometry of splenocytes for FoxP3+/CD4+ T-cells after AAV9 treatment period (Example 3); type: in vivo, mice; conditions: SC QW 4 weeks with AAV9; OPLT 5 mg, liposomal OBLT 50 μg OBLT; one animal per group
Description: (§3) OPLT and OBLT were dissolved in sterile PBS, and pH was adjusted to approximately 7.5. Liposomal OBLT was prepared using […]. AAV9 in PBS was used as a control. For treatment, AAV9 was co-mixed with OPLT or liposomal OBLT before administration, as per group assignment for each animal. AAV9 was administered with 5 mg of OPLT SC QW, 50 μg OBLT SC QW as liposomal OBLT or 7.2 μg OBLT PO QD as liposomal OBLT. For all SC groups, AAV9 was dosed at 10^6 particles/injection. For PO groups, AAV9 was dosed at 1.43×10^5 particles/injection.
(§4) Animals were injected with AAV9, AAV9+OPLT, or AAV9+liposomal OBLT SC QW for 4 weeks. Blood samples were collected for anti-AAV9 titer analysis after a one-week washout period from the last dose. For oral tolerance, animals were administered AAV9 or AAV9+liposomal OBLT PO, QD for 4 weeks. AAV9 was also administered SC QW to both groups during the treatment period. Blood samples were collected for anti-AAV9 titer analysis after a one-week washout period from the last dose.
as §2, with “dose,” for “dose in the treatment period,”, “ex-vivo” for “ex vivo”

[4] = test system: B57BL6 Mice; assay: Anti-AAV9 titer analysis in mice given AAV9 with OPLT or liposomal OBLT (Example 3); type: in vivo
Description: as §3, §4

[5] = test system: Splenocytes; assay: Splenocyte culture with anti-CD3/anti-CD28 without antigen, Foxp3+/CD4+ by flow cytometry (Example 4); type: cell-based; conditions: 100 μM, three days, anti-CD3/anti-CD28, absence of any antigen
Description: Splenocytes were cultured for three days in presence of anti-CD3/anti-CD28 in presence of 100 μM PS or 100 μM OPLT in absence of any antigen.

[6] = test system: FoxP3+/CD4+ T-cells; assay: Splenocytes cultured 3 days with anti-CD3/anti-CD28 with or without OPLT, percent FoxP3+/CD4+ T-cells (Example 6); type: cell-based, C57BL/6 mice; conditions: 72-hour incubation
Description: (§5) OPLT was dissolved in sterile PBS at 100 μM, and pH was adjusted to approximately 7.5. Splenocytes from naïve C57BL/6 mice were stained with CFSE, prepared, cultured, and dosed. Cells were seeded at 2×10^5 cells/well.
To evaluate the effects of OPLT on FoxP3+/CD4+ T-cells, splenocytes were cultured for 3 days in presence of anti-CD3/anti-CD28 with and without 1.85 μg/ml (10 μM) OPLT. Cells were harvested at the end of a 72-hour incubation period and percent FoxP3+/CD4+ T-cells was determined by flow cytometry.

[7] = test system: TLR2; assay: TNF-α production by splenocytes in response to TLR2 ligand PGN; type: cell-based, C57BL/6 mice; conditions: for TNF-α mean: 48 hours, OPLT 1.85 μg/ml, dexamethasone 100 μg/ml, rapamycin 625 μg/ml
Description: as §5
(§6) To evaluate the effects of OPLT on cytokine production by splenocytes in response to different TLR ligands, splenocytes were incubated with one of the following TLR ligands in triplicate: PGN, LPS, ODN CPG, dsRNA, or ssRNA, as per group assignment. Cells were then treated as follows: • Control: No treatment; • OPLT: Cells were dosed with 1.85 μg/ml; • Dexamethasone: Cells were dosed with 100 μg/ml; • Rapamycin: Cells were dosed with 625 μg/ml. Cells were incubated for 48 hours before collecting the supernatant for TNF-α analysis.
(§7) The supernatant was collected for TNF-α analysis by ELISA.

[8] = test system: TLR4; assay: TNF-α production by splenocytes in response to TLR4 ligand LPS; type: cell-based, C57BL/6 mice; conditions: for TNF-α mean: 48 hours, OPLT 1.85 μg/ml, dexamethasone 100 μg/ml, rapamycin 625 μg/ml
Description: as §5, §6, §7

[9] = test system: TLR7; assay: TNF-α production by splenocytes in response to TLR7 ligand ssPolyU; type: cell-based, C57BL/6 mice; conditions: for TNF-α mean: 48 hours, OPLT 1.85 μg/ml, dexamethasone 100 μg/ml, rapamycin 625 μg/ml
Description: as §5, §6, §7

[10] = weeks 1 and 2 of re-challenge with FVIII alone SC QW

N[C@@H](Cc1ccc(OP(=O)(O)O)cc1)C(=O)O [OPLT, O-phospho-L-tyrosine]
inducing sustained immunotolerization toward FVIII ([1]; OPLT versus OPLS, 5 mg/injection each): more effective than OPLS | anti-FVIII titers versus FVIII control group ([1]; end of treatment after one-week washout): statistically lower than the FVIII control group | animals that developed anti-FVIII antibodies ([1]; end of treatment after one-week washout, 5 mg/injection + FVIII SC QW 4 weeks, FVIII control 8/8): 3/8 | average anti-FVIII titer in re-challenge period [1, 10]: lower titer than animals in the OPLS+FVIII and the FVIII control group | immune response to FVIII re-challenge [1, 10]: did not develop a robust immune response | increase in FoxP3+/CD4+ compared to the FVIII alone group ([2]; 5 mg/injection co-mixed with FVIII 1 μg SC QW 4 weeks, splenocytes of one animal per group one week after last dose): 188% | increase in FoxP3+/CD4+ compared to OPLS+FVIII treatment ([2]; 5 mg/injection co-mixed with FVIII SC QW 4 weeks): 73% | FoxP3+/CD4+ T-cell (flow cytometry of splenocytes) ([2]; 5 mg/injection co-mixed with FVIII SC QW 4 weeks, one animal per group, FVIII alone 2.94): 8.47 | increase in FoxP3+/CD4+ compared to the untreated group [3]: 122% | anti-AAV9 immune response/titers versus AAV9 alone control ([4]; SC QW 4 weeks): did not elicit an immune response | animals that developed measurable anti-AAV9 antibodies ([4]; SC QW 4 weeks with AAV9, after one-week washout, AAV9 SC control 8/8): 0/8 | increase in Foxp3+/CD4+ compared to control [5]: 118% | increase in FoxP3+/CD4+ T-cells versus untreated cells ([6]; 10 μM (1.85 μg/ml) OPLT, anti-CD3/anti-CD28): 118% | percent FoxP3+/CD4+ T-cells ([6]; 10 μM OPLT, untreated 12.7%): 27.7% | TNF-α mean ([7]; PGN 0 ng/ml): 0 pg/mL | TNF-α mean ([7]; PGN 1 ng/ml, CTL 730): 445 pg/mL | TNF-α mean ([7]; PGN 10 ng/ml, CTL 725): 613 pg/mL | TNF-α mean ([7]; PGN 100 ng/ml, CTL 834): 827 pg/mL | effect on splenocytes' TNF-α response to the TLR2 ligand PGN (in words) ([7]; PGN 1, 10, 100 ng/ml, compared to control): statistically significant reduction in TNF-α in the low PGN dose group (1 ng/ml), but not the mid or high PGN dose group | TNF-α mean ([8]; LPS 0 ng/ml): 0 pg/mL | TNF-α mean ([8]; LPS 1 ng/ml, CTL 143): 116 pg/mL | TNF-α mean ([8]; LPS 10 ng/ml, CTL 840): 676 pg/mL | TNF-α mean ([8]; LPS 100 ng/ml, CTL 1091): 838 pg/mL | effect on splenocytes' TNF-α response to the TLR4 ligand LPS (in words) ([8]; compared to control at all doses, 10 μM OPLT): did not abrogate splenocytes' response to LPS | TNF-α mean ([9]; Poly U 0 ng/ml): 0 pg/mL | TNF-α mean ([9]; Poly U 1 ng/ml, CTL 44): 36 pg/mL | TNF-α mean ([9]; Poly U 10 ng/ml, CTL 51): 40 pg/mL | TNF-α mean ([9]; Poly U 100 ng/ml, CTL 229): 43 pg/mL | effect on splenocytes' TNF-α response to the TLR7 ligand Poly U (in words) ([9]; high dose of Poly U, statistically significant): reduced splenocytes' response to a high dose of the TLR7 ligand Poly U
